# From patent US20250101039A1, “RIFAMYCIN DERIVATIVES FOR THE TREATMENT OF DISEASES” (priority 2022, published 2025)
# Read-outs that look alike come from different tables or passages of the source.
# Experiments:
# [1] = tested on: S. aureus; experiment: MIC by broth microdilution, S. aureus; assay type: cell-based, Staphylococcus aureus; conditions: for MIC S. aureus: cation adjusted Mueller Hinton broth, 35° C. 20 hours
# [2] = tested on: A. baumannii; experiment: MIC by broth microdilution, A. baumannii (WT); assay type: cell-based, Acinetobacter baumannii; conditions: for A. baumannii MIC, WT: Table 4, RPMI + FCS
# [3] = tested on: A. baumannii RpoB H535Q; experiment: microbe, parasite or virus in culture; assay type: cell-based, Acinetobacter baumannii; conditions: Table 4, RPMI + FCS
# [4] = tested on: A. baumannii RpoB H535L; experiment: microbe, parasite or virus in culture; assay type: cell-based, Acinetobacter baumannii; conditions: Table 4, RPMI + FCS
# [5] = tested on: Enterococcus faecium (strain NCTC 12204); experiment: MIC by broth microdilution, E. faecium; assay type: cell-based; conditions: strain NCTC 12204, cation adjusted Mueller Hinton broth
# [6] = tested on: H. influenzae (strain ATCC 49247); experiment: MIC by broth microdilution, H. influenzae; assay type: cell-based, Hemophilus influenzae; conditions: strain ATCC 49247, Hemophilus test medium broth
# [7] = tested on: A. baumannii RpoB H535C; experiment: microbe, parasite or virus in culture; assay type: cell-based, Acinetobacter baumannii; conditions: Table 4, RPMI + FCS
# [8] = tested on: M. tuberculosis (H37Rv strain ATCC 27294); assay type: cell-based, Mycobacterium tuberculosis
# [9] = tested on: M. abscessus (strain ATCC 19977); experiment: MIC by broth microdilution, M. abscessus; assay type: cell-based, Mycobacterium abscessus; conditions: strain ATCC 19977, Middlebrook 7H9 broth + ADC
# [10] = tested on: M. smegmatis (strain ATCC 700084); experiment: MIC, M. smegmatis (BacTiter-Glo); assay type: cell-based, Mycobacterium smegmatis; conditions: strain ATCC 700084, Middlebrook 7H9 + ADC, 90% growth inhibition, 20 hours
# [11] = tested on: S. pneumoniae (strain ATCC 49619); experiment: MIC by broth microdilution, S. pneumoniae; assay type: cell-based, Streptococcus pneumoniae; conditions: strain ATCC 49619, cation adjusted Mueller Hinton broth + 5% laked horse blood
# [12] = tested on: S. pyogenes (strain IHMA 1117021); experiment: MIC by broth microdilution, S. pyogenes; assay type: cell-based, Streptococcus pyogenes; conditions: strain IHMA 1117021, cation adjusted Mueller Hinton broth + 5% laked horse blood
# [13] = tested on: Enterococcus faecalis (strain ATCC 51575); experiment: MIC by broth microdilution, E. faecalis; assay type: cell-based; conditions: strain ATCC 51575, cation adjusted Mueller Hinton broth
# [14] = tested on: Staphylococcus epidermidis (strain ATCC 12228); experiment: MIC by broth microdilution, S. epidermidis; assay type: cell-based; conditions: strain ATCC 12228, cation adjusted Mueller Hinton broth
# [15] = RPMI medium supplemented with 10% FCS, 35° C. 20 hours
smiles,measurement,setting,value
COC1C=COC2(C)Oc3c(C)c(O)c4c(c3C2=O)C2=NC3(NC2=C(NC(=O)C(C)=CC=CC(C)C(O)C(C)C(O)C(C)C(OC(C)=O)C1C)C4=O)C1CCC3CN(C)C1 (mixture of isomers) [1 (A + B)],MIC S. aureus,[1],0.016 µg/mL
same,MIC A. baumannii,[2]; [15],0.25 µg/mL
COC1C=COC2(C)Oc3c(C)c(O)c4c(c3C2=O)C2=NC3(NC2=C(NC(=O)C(C)=CC=CC(C)C(O)C(C)C(O)C(C)C(OC(C)=O)C1C)C4=O)C1CCC3CN(C(C)(C)C)C1 (mixture of isomers) [2 (A + B)],MIC S. aureus,[1],0.008 µg/mL
same,MIC A. baumannii,[2]; [15],2 µg/mL
COC1C=COC2(C)Oc3c(C)c(O)c4c(c3C2=O)C2=NC3(NC2=C(NC(=O)C(C)=CC=CC(C)C(O)C(C)C(O)C(C)C(OC(C)=O)C1C)C4=O)C1CC3CN(C)C1 (mixture of isomers) [5 (A + B)],MIC S. aureus,[1],0.125 µg/mL
same,MIC A. baumannii,[2]; [15],8 µg/mL
COC1C=COC2(C)Oc3c(C)c(O)c4c(c3C2=O)C2=NC3(CCC5CCC(C3)N5C)NC2=C(NC(=O)C(C)=CC=CC(C)C(O)C(C)C(O)C(C)C(OC(C)=O)C1C)C4=O (mixture of isomers) [8 (A + B + C + D)],"A. baumannii MIC, RpoB H535Q",[3],0.06 µg/mL
same,"A. baumannii MIC, RpoB H535L",[4],1 µg/mL
same,MIC E. faecium,[5],0.125 µg/mL
same,MIC H. influenzae,[6],0.125 µg/mL
same,"A. baumannii MIC, RpoB H535C",[7],0.125 µg/mL
same,MIC M. tuberculosis,[8],0.01 µg/mL
same,MIC M. abscessus,[9],32 µg/mL
same,MIC M. smegmatis,[10],1.19 µg/mL
same,MIC S. pneumoniae,[11],< 0.002 µg/mL
same,MIC S. pyogenes,[12],0.016 µg/mL
same,MIC E. faecalis,[13],2 µg/mL
same,MIC S. epidermidis,[14],< 0.002 µg/mL
same,MIC S. aureus,[1],0.03 µg/mL
same,MIC A. baumannii,[2]; [15],0.008 µg/mL
same,"A. baumannii MIC, WT",[2],0.008 µg/mL
COC1C=COC2(C)Oc3c(C)c(O)c4c(c3C2=O)C2=NC3(CC5CCC(C3)N5C3CCCC3)NC2=C(NC(=O)C(C)=CC=CC(C)C(O)C(C)C(O)C(C)C(OC(C)=O)C1C)C4=O (mixture of isomers) [15 (A + B)],MIC S. aureus,[1],0.03 µg/mL
same,MIC A. baumannii,[2]; [15],0.25 µg/mL
COC1C=COC2(C)Oc3c(C)c(O)c4c(c3C2=O)C2=NC3(NC2=C(NC(=O)C(C)=CC=CC(C)C(O)C(C)C(O)C(C)C(OC(C)=O)C1C)C4=O)C1CCCC3CNC1 (mixture of isomers) [16 (A + B)],"A. baumannii MIC, RpoB H535Q",[3],0.008 µg/mL
same,"A. baumannii MIC, RpoB H535L",[4],1 µg/mL
same,MIC E. faecium,[5],0.125 µg/mL
same,MIC H. influenzae,[6],0.06 µg/mL
same,"A. baumannii MIC, RpoB H535C",[7],0.016 µg/mL
same,MIC M. abscessus,[9],4 µg/mL
same,MIC M. smegmatis,[10],0.33 µg/mL
same,MIC S. pneumoniae,[11],< 0.002 µg/mL
same,MIC S. pyogenes,[12],< 0.002 µg/mL
same,MIC E. faecalis,[13],0.5 µg/mL
same,MIC S. epidermidis,[14],< 0.002 µg/mL
same,MIC S. aureus,[1],0.004 µg/mL
same,MIC A. baumannii,[2]; [15],< 0.002 µg/mL
same,"A. baumannii MIC, WT",[2],≤0.002 µg/mL
"CO[C@H]1/C=C/O[C@@]2(C)Oc3c(C)c(O)c4c(c3C2=O)C2=NC3(CCCNCC3)NC2=C(NC(=O)/C(C)=C\C=C\[C@H](C)[C@H](O)[C@@H](C)[C@@H](O)[C@@H](C)[C@H](OC(C)=O)[C@@H]1C)C4=O (single isomer, unassigned) [Compound 6A]",MIC S. aureus,[1],0.016 µg/mL
same,MIC A. baumannii,[2]; [15],0.125 µg/mL
"CO[C@H]1/C=C/O[C@@]2(C)Oc3c(C)c(O)c4c(c3C2=O)C2=NC3(CCCNCC3)NC2=C(NC(=O)/C(C)=C\C=C\[C@H](C)[C@H](O)[C@@H](C)[C@@H](O)[C@@H](C)[C@H](OC(C)=O)[C@@H]1C)C4=O (single isomer, unassigned) [Compound 6B]",MIC S. aureus,[1],16 µg/mL
same,MIC A. baumannii,[2]; [15],125 µg/mL
"CO[C@H]1/C=C/O[C@@]2(C)Oc3c(C)c(O)c4c(c3C2=O)C2=NC3(CCCN(C)CC3)NC2=C(NC(=O)/C(C)=C\C=C\[C@H](C)[C@H](O)[C@@H](C)[C@@H](O)[C@@H](C)[C@H](OC(C)=O)[C@@H]1C)C4=O (single isomer, unassigned) [Compound 7A]","A. baumannii MIC, RpoB H535Q",[3],0.016 µg/mL
same,"A. baumannii MIC, RpoB H535L",[4],1 µg/mL
same,MIC E. faecium,[5],0.06 µg/mL
same,MIC H. influenzae,[6],0.06 µg/mL
same,"A. baumannii MIC, RpoB H535C",[7],0.03 µg/mL
same,MIC M. tuberculosis,[8],0.01 µg/mL
same,MIC M. abscessus,[9],16 µg/mL
same,MIC M. smegmatis,[10],0.54 µg/mL
same,MIC S. pneumoniae,[11],< 0.002 µg/mL
same,MIC S. pyogenes,[12],< 0.002 µg/mL
same,MIC E. faecalis,[13],0.5 µg/mL
same,MIC S. epidermidis,[14],< 0.002 µg/mL
same,MIC S. aureus,[1],0.008 µg/mL
same,MIC A. baumannii,[2]; [15],0.004 µg/mL
same,"A. baumannii MIC, WT",[2],0.004 µg/mL
"CO[C@H]1/C=C/O[C@@]2(C)Oc3c(C)c(O)c4c(c3C2=O)C2=NC3(CCCN(C)CC3)NC2=C(NC(=O)/C(C)=C\C=C\[C@H](C)[C@H](O)[C@@H](C)[C@@H](O)[C@@H](C)[C@H](OC(C)=O)[C@@H]1C)C4=O (single isomer, unassigned) [Compound 7B]",MIC S. aureus,[1],0.008 µg/mL
same,MIC A. baumannii,[2]; [15],0.125 µg/mL
"CO[C@H]1/C=C/O[C@@]2(C)Oc3c(C)c(O)c4c(c3C2=O)C2=NC3(CC5CCC(C3)N5)NC2=C(NC(=O)/C(C)=C\C=C\[C@H](C)[C@H](O)[C@@H](C)[C@@H](O)[C@@H](C)[C@H](OC(C)=O)[C@@H]1C)C4=O (single isomer, unassigned) [Compound 12A]",MIC S. aureus,[1],0.06 µg/mL
same,MIC A. baumannii,[2]; [15],0.06 µg/mL
"CO[C@H]1/C=C/O[C@@]2(C)Oc3c(C)c(O)c4c(c3C2=O)C2=NC3(CC5CCC(C3)N5C)NC2=C(NC(=O)/C(C)=C\C=C\[C@H](C)[C@H](O)[C@@H](C)[C@@H](O)[C@@H](C)[C@H](OC(C)=O)[C@@H]1C)C4=O (single isomer, unassigned) [Compound 13A]",MIC,"[1]; Staphylococcus aureus, 20 h, read-out: MIC S. aureus, cation adjusted Mueller Hinton broth, 35° C. 20 hours",0.03 µg/mL
same,MIC A. baumannii,[2]; [15],0.03 µg/mL
"CO[C@H]1/C=C/O[C@@]2(C)Oc3c(C)c(O)c4c(c3C2=O)C2=NC3(CC5CCC(C3)N5C(C)C)NC2=C(NC(=O)/C(C)=C\C=C\[C@H](C)[C@H](O)[C@@H](C)[C@@H](O)[C@@H](C)[C@H](OC(C)=O)[C@@H]1C)C4=O (single isomer, unassigned) [Compound 14A]",MIC S. aureus,[1],0.016 µg/mL
same,MIC A. baumannii,[2]; [15],0.25 µg/mL
"CO[C@H]1/C=C/O[C@@]2(C)Oc3c(C)c(O)c4c(c3C2=O)C2=NC3(CC5CCC(C3)N5C(C)C)NC2=C(NC(=O)/C(C)=C\C=C\[C@H](C)[C@H](O)[C@@H](C)[C@@H](O)[C@@H](C)[C@H](OC(C)=O)[C@@H]1C)C4=O (single isomer, unassigned) [Compound 14B]",MIC S. aureus,[1],0.008 µg/mL
same,MIC A. baumannii,[2]; [15],0.016 µg/mL
"CCCN1C2CCC1CC1(C2)N=C2C(=C3NC(=O)/C(C)=C\C=C\[C@H](C)[C@H](O)[C@@H](C)[C@@H](O)[C@@H](C)[C@H](OC(C)=O)[C@H](C)[C@@H](OC)/C=C/O[C@@]4(C)Oc5c(C)c(O)c(c2c5C4=O)C3=O)N1 (single isomer, unassigned) [Compound 20A]",MIC S. aureus,[1],0.008 µg/mL
same,MIC A. baumannii,[2]; [15],0.25 µg/mL
CO[C@H]1/C=C/O[C@@]2(C)Oc3c(C)c(O)c4c(c3C2=O)C2=NC3(NC2=C(NC(=O)/C(C)=C\C=C\[C@H](C)[C@H](O)[C@@H](C)[C@@H](O)[C@@H](C)[C@H](OC(C)=O)[C@@H]1C)C4=O)C1CC2CC3CN(C2)C1 (stereo partly shown) [Compound 3A],MIC S. aureus,[1],0.008 µg/mL
same,MIC A. baumannii,[2],0.25 µg/mL
CCCN1CC2CN(CCC)CC(C1)C21N=C2C(=C3NC(=O)/C(C)=C\C=C\[C@H](C)[C@H](O)[C@@H](C)[C@@H](O)[C@@H](C)[C@H](OC(C)=O)[C@H](C)[C@@H](OC)/C=C/O[C@@]4(C)Oc5c(C)c(O)c(c2c5C4=O)C3=O)N1 (stereo partly shown) [Compound 4],MIC S. aureus,[1],0.016 µg/mL
same,MIC A. baumannii,[2]; [15],0.03 µg/mL
CO[C@H]1/C=C/O[C@@]2(C)Oc3c(C)c(O)c4c(c3C2=O)C2=NC3(NC2=C(NC(=O)/C(C)=C\C=C\[C@H](C)[C@H](O)[C@@H](C)[C@@H](O)[C@@H](C)[C@H](OC(C)=O)[C@@H]1C)C4=O)C1CNCC3CNC1 (stereo partly shown) [Compound 17],MIC S. aureus,[1],0.008 µg/mL
same,MIC A. baumannii,[2]; [15],0.5 µg/mL
CO[C@H]1/C=C/O[C@@]2(C)Oc3c(C)c(O)c4c(c3C2=O)C2=NC3(NC2=C(NC(=O)/C(C)=C\C=C\[C@H](C)[C@H](O)[C@@H](C)[C@@H](O)[C@@H](C)[C@H](OC(C)=O)[C@@H]1C)C4=O)C1CN2CC3CN(C1)C2 (stereo partly shown) [Compound 19],MIC S. aureus,[1],0.004 µg/mL
same,MIC A. baumannii,[2]; [15],1 µg/mL
